This passage reports IC50 results from patent EP4707277A1, “NOVEL HETEROCYCLIC AMINE DERIVATIVES AND PHARMACEUTICAL COMPOSITION COMPRISING SAME” (Daewoong Pharmaceutical Co., Ltd., priority 2023, dated 2024).

The target in one experiment is T1, BTK (Homo sapiens, UniProt Q06187).
T1 construct: purchased Signalchem B10-10H
Put plainly: Inhibitory activity against BTK, ADP-Glo Kinase system (Promega). Format: biochemical. The note with it: 1mM ATP; read-out: BTK IC50(nM) 1mM ATP. In outline:
(§1)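 IC50 values were fitted from kinase reactions run for 1 h at 30°C with either 1 mM ATP or ATP at Km (10 µM for BTK, 25 µM for ITK). Reactions used 0.2 µg/µl poly(Glu4,Tyr1), recombinant human enzyme (BTK 10 ng, ITK 4 ng per reaction) in Tris pH 7.5 Mn/Mg buffer with 1% DMSO. ADP formed was read by ADP-Glo luminescence.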

Another experiment has as its target T2, ITK (Homo sapiens, UniProt Q08881).
T2 construct: purchased Signalchem I13-11G-10
T2 sequence (Q08881 1-620): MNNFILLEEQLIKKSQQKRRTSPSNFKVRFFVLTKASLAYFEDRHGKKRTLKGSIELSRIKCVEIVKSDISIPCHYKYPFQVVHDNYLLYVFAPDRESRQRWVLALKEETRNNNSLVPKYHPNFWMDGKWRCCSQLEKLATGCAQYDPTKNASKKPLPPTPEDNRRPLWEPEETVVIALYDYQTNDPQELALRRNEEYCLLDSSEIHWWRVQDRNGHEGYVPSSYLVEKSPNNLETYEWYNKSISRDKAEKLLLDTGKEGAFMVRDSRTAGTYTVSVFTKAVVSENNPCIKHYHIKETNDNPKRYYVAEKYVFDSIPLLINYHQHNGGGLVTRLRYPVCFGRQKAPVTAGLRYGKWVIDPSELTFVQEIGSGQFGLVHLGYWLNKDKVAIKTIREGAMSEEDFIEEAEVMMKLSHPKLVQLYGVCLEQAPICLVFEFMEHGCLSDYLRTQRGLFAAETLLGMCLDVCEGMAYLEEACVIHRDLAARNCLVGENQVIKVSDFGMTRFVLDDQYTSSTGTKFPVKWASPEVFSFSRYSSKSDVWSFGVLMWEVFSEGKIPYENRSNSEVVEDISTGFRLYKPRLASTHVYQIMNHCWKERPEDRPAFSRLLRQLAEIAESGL
The experiment is described as follows: Inhibitory activity against ITK, ADP-Glo Kinase system (Promega). It is filed as biochemical. Particulars: 1mM ATP; read-out: ITK IC50(nM) 1mM ATP. In outline: as §1

T1 sequence (Q06187 whole entry): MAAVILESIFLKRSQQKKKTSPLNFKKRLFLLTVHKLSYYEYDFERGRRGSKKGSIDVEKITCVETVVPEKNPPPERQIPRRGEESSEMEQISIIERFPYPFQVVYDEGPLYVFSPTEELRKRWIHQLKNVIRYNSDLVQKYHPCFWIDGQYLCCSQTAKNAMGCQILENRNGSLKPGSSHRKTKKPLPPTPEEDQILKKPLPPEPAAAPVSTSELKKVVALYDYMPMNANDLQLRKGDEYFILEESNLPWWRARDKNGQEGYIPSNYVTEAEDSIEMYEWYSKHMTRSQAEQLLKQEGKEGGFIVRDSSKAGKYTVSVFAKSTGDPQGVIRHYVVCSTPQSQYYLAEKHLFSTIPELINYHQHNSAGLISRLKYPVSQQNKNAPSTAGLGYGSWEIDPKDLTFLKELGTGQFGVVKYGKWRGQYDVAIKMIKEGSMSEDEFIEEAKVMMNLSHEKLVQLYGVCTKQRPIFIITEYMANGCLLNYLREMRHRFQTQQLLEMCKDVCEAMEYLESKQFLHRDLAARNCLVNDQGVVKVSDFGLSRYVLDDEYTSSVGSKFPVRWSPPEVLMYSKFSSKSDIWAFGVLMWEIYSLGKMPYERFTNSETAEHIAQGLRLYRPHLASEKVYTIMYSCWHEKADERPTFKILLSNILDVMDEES

A word on the IC50: it is the midpoint of a concentration-inhibition curve. Regarding `C=CC(=O)N1CC[C@H](Oc2nc(Nc3ncc(C)s3)cc3c2ccn3CCC(C)C)C1` [Example 114, (S)-1-(3-((1-isopentyl-6-((5-methylthiazol-2-yl)amino)-1H-pyrrolo[3,2-c]pyridin-4-yl)oxy)pyrrolidin-1-yl)prop-2-en-1-one], the IC50 on BTK and at ITK was at most 20 nM throughout.

For the molecule `C=CC(=O)N1C[C@@H](F)[C@H](Oc2nc(Nc3ncc(C)s3)cc3c2ccn3C(C)C)C1` [Example 91, 1-((3R,4R)-3-fluoro-4-((1-isopropyl-6-((5-methylthiazol-2-yl)amino)-1H-pyrrolo[3,2-c]pyridin-4-yl)oxy)pyrrolidin-1-yl)prop-2-en-1-one], the concentration for half-maximal inhibition (IC50) at BTK and at ITK was at most 20 nM in each case.
